Source: US8476255B2, “Histone deacetylase inhibitors” (Orchid Chemicals & Pharmaceuticals Limited, priority 2007, dated 2013)

Key:
NCIH460 (lung) cells = test: Anti-cancer screen (MTT), NCIH460; type: cell-based; settings: Homo sapiens, NCI-H460, NCIH460, 48 hours, MTT; for GI50: read-out: Cell growth inhibition NCIH460 (Lung) GI50; for LC50: read-out: Cell growth inhibition NCIH460 (Lung) LC50; for IC (TGI): read-out: Cell growth inhibition NCIH460 (Lung) TGI
Description: (§1) Experimental drugs were screened for anti-cancer activity in three cell lines using five concentrations for each compound. The cell lines —HCT 116 (colon), NCIH460 (lung) and U251 (glioma) were maintained in DMEM containing 10% fetal bovine serum. 96-well microtiter plates are inoculated with cells in 100 μL of cell suspension (5×10^4 cells/mL) for 24 hours at 37° C., 5% CO2, 95% air and 100% relative humidity. A separate plate with these cell lines is also inoculated to determine cell viability before the addition of the compounds (T0).
(§2) Following 24-hours incubation, test compounds were added to the 96 well plates. Each plate contains one of the above cell lines and the following samples in triplicate: five different dilutions (0.01, 0.1, 1, 10 and 100 μM) of four test compounds, appropriate dilutions of a cytotoxic standard and growth medium (untreated) wells. Test compounds were dissolved in DMSO to prepare 20 mM stock solutions on the day of drug addition and serial dilutions were carried out in complete growth medium at 2× strength such that 100 μL added to wells gave final concentrations (0.01, 0.1, 1, 10 and 100 μM) in the well. SAHA was used as standard drug in these experiments.
(§3) For T0 measurement, 24 hours after seeding the cells, 20 μL of 3-(4,5-dimethyl-2-thiazolyl)-2,5-diphenyl-2H-tetrazolium (MTT) solution per well was added to the ‘T0’ plate and incubated for 3 hours at 37° C. in a CO2 incubator. The plate containing cells and test compounds was treated similarly after 48 hours of incubation. After 3 hours of MTT addition, well contents were aspirated carefully followed by addition of 150 μL DMSO per well. Plates were agitated to ensure dissolution of the formazan crystals in DMSO and absorbance was read at 570 nm (A570).
(§4) (Mosmann T. Rapid colorimetric assay for cellular growth and survival: application to proliferation and cytotoxicity assays. J Immunol Methods 1983; 65(1-2): 55-63; Anne Monks et al. Feasibility of high-flux anticancer drug screen using a diverse panel of cultured human tumor cell lines”. JNCI, Vol. 83, No. 11, 1991).

HCT 116 (colon) cells = test: Anti-cancer screen (MTT), HCT 116; type: cell-based; settings: Homo sapiens, HCT-116, HCT116, 48 hours, MTT; for GI50: read-out: Cell growth inhibition HCT116 (Colon) GI50; for CC50: read-out: Cell growth inhibition HCT116 (Colon) LC50; for IC (TGI): read-out: Cell growth inhibition HCT116 (Colon) TGI
Description: as §1, §2, §3, §4

U251 (glioma) cells = test: Anti-cancer screen (MTT), U251; type: cell-based; settings: Homo sapiens, U-251, U251, 48 hours, MTT; for GI50: read-out: Cell growth inhibition U251 (Glioma) GI50; for LC50 (concentration giving 50% net cell kill relative to the time-zero cell count): read-out: Cell growth inhibition U251 (Glioma) LC50; for IC (TGI): read-out: Cell growth inhibition U251 (Glioma) TGI
Description: as §1, §2, §3, §4

[1] = system: NCIH460, HCT116 and U251 cells; test: Anti-cancer screen, mean GI50 over cell lines; type: cell-based; settings: mean over cell lines; read-out: Cell growth inhibition Mean GI50
Description: as §1, §2, §3, §4

[2] = system: HDAC (Mouse Liver Extract); test: HDAC inhibition assay using Boc-Lys(Ac)-AMC substrate; type: biochemical; settings: mouse liver enzyme
Description: Inhibition of HDAC has been implicated to modulate transcription and to induce apoptosis or differentiation in cancer cells. The fluorometric assay provides a fast and fluorescence based method that eliminates radioactivity, extractions or chromatography, as used in traditional assays. The assay is based on two steps. First, the HDAC fluorometric substrate, which comprises an acetylated lysine side chain, is incubated with a sample containing HDAC activity (Mouse Liver Extract). Deacetylation of the substrate sensitizes the substrate, in the second step; treatment with the Trypsin stop solution produces a fluorophore that can be easily analyzed using fluorescence plate reader. Assay was done in 96-well black microplate and total volume of the assay was […]. […] The plate was pre-incubated at 37° C. for 5 minutes. […] The plate was incubated at 37° C. for 30 min. The reaction was stopped by adding 100 μL, of Trypsin stop solution and incubating at 37° C. for 15-30 min. Measuring the fluorescence at excitation wavelength of 360 nm and emission wavelength of 460 nm monitored the release of AMC. Buffer alone and substrate alone served as blank. […] (Dennis Wegener et al, Anal. Biochem, 321, 2003, 202-208).

| SMILES | GI50 (NCIH460 (lung) cells) [µM] | LC50 (NCIH460 (lung) cells) [µM] | IC (TGI) (NCIH460 (lung) cells) [µM] | GI50 (HCT 116 (colon) cells) [µM] | CC50 (HCT 116 (colon) cells) [µM] | IC (TGI) (HCT 116 (colon) cells) [µM] | GI50 (U251 (glioma) cells) [µM] | LC50 (concentration giving 50% net cell kill relative to the time-zero cell count) (U251 (glioma) cells) [µM] | IC (TGI) (U251 (glioma) cells) [µM] | GI50 [1] [µM] | HDAC inhibition % (1 μM) [2] [%] | HDAC inhibition % (10 μM) [2] [%] | IC50 [2] [µM] |
| --- | --- | --- | --- | --- | --- | --- | --- | --- | --- | --- | --- | --- | --- |
| Nc1ccccc1NC(=O)c1ccc(CNC(=O)/C(=C/c2ccccc2)c2ccccc2)cc1 [Compound 12, N-(2-Aminophenyl)-4-((3-phenyl-2-phenylacrylamido)methyl)benzamide] | 32 | 87 | 60 | 5.2 | 76.2 | 37 | 18 | 82 | 48.5 | 18.4 | 13.6 | 29.8 | – |
| Nc1ccccc1NC(=O)c1ccc(CNC(=O)/C(=C/c2c(F)cc(F)cc2F)c2ccc(F)cc2)cc1 [Compound 13, N-(2-Aminophenyl)-4-((3-(2,4,6-trifluorophenyl)-2-(4-fluorophenyl)acrylamido)methyl)benzamide] | 34 | 93 | 66 | 8.9 | 90 | 50 | 3.4 | 48 | 8 | 15.4 | 9.4 | 18.2 | – |
| CSc1ccc(/C=C(/C(=O)NCc2ccc(C(=O)Nc3ccccc3N)cc2)c2cccs2)cc1 [Compound 18, N-(2-Aminophenyl)-4-((3-(4-methylthiophenyl)-2-(thiophen-2-yl)acrylamido)methyl)benzamide] | 4.1 | > 100 | 20 | 5 | > 100 | 20 | 2.2 | 7 | 4 | 3.8 | 28.7 | 36.7 | – |
| COc1cc(/C=C(/C(=O)NCc2ccc(C(=O)Nc3ccccc3N)cc2)c2ccc(F)cc2)ccc1F [Compound 20, N-(2-Aminophenyl)-4-((3-(4-fluoro-3-methoxyphenyl)-2-(4-fluorophenyl)acrylamido)methyl)benzamide] | 7.5 | – | 18 | 0.3 | 80 | 20 | 1.7 | – | 3.5 | 3.2 | 45.1 | 46.2 | – |
| CSc1ccc(/C=C(/C(=O)NCc2ccc(C(=O)Nc3ccccc3N)cc2)c2ccc(C(F)(F)F)cc2)cc1 [Compound 21, N-(2-Aminophenyl)-4-((3-(4-methylthiophenyl)-2-(4-trifluoromethylphenyl)acrylamido)methyl)benzamide] | 32 | 78 | 46 | 35 | 82 | 56 | 52 | 96 | 65 | 39.7 | 7.0 | 24.8 | – |
| CSc1ccc(/C=C(/C(=O)NCc2ccc(C(=O)Nc3ccccc3N)cc2)c2ccccc2F)cc1 [Compound 24, N-(2-Aminophenyl)-4-((3-(4-methylthiophenyl)-2-(2-fluorophenyl)acrylamido)methyl)benzamide] | 5 | – | 32 | 3.8 | > 100 | 12 | 8.5 | – | 30 | 5.8 | 41.3 | 51.4 | – |
| CSc1ccc(/C=C(/C(=O)NCc2ccc(C(=O)Nc3ccccc3N)cc2)c2ccc(C)cc2)cc1 [Compound 25, N-(2-Aminophenyl)-4-((3-(4-methylthiophenyl)-2-(4-methylphenyl)acrylamido)methyl)benzamide] | 19 | 100 | 58 | 7.5 | 90 | 48 | 6.5 | 89 | 37 | 11 | 63.8 | 68.1 | – |
| CSc1ccc(/C=C(/C(=O)NCc2ccc(C(=O)Nc3ccccc3N)cc2)c2ccsc2)cc1 [Compound 26, N-(2-Aminophenyl)-4-((3-(4-methylthiophenyl)-2-(thiophen-3-yl)acrylamido)methyl)benzamide] | 52 | > 100 | > 100 | 4 | > 100 | 15 | 50 | > 100 | 70 | 35.3 | 34.1 | 42.6 | – |
| COc1ccc(/C=C(/C(=O)NCc2ccc(C(=O)Nc3ccccc3N)cc2)c2ccccc2Cl)cc1OC [Compound 30, N-(2-Aminophenyl)-4-((3-(3,4-dimethoxyphenyl)-2-(2-chlorophenyl)acrylamido)methyl)benzamide] | > 100 | > 100 | > 100 | 100 | > 100 | > 100 | 1 | > 100 | > 100 | 50.5 | 7.1 | 30.1 | – |
| COC(=O)c1ccc(/C=C(/C(=O)NCc2ccc(C(=O)Nc3ccccc3N)cc2)c2cccc(Cl)c2)cc1 [Compound 33, N-(2-Aminophenyl)-4-((3-(4-carbmethoxyphenyl)-2-(3-chlorophenyl)acrylamido)methyl)benzamide] | 0.2 | 60 | 11 | 0.02 | 80 | 2 | 0.2 | 4.5 | 0.7 | 0.1 | 34.4 | 35.0 | 7.8 |
| COC(=O)c1ccc(/C=C(/C(=O)NCc2ccc(C(=O)Nc3ccccc3N)cc2)c2ccccc2F)cc1 [Compound 34, N-(2-Aminophenyl)-4-((3-(4-carbmethoxyphenyl)-2-(2-fluorophenyl)acrylamido)methyl)benzamide] | 10.1 | > 100 | 90 | 1.8 | > 100 | 13 | 0.7 | 65 | 23 | 4.2 | 23.1 | 42.3 | – |
